# Experimental data as given in US20240158391A1, “DERIVATIVES OF 4-(IMIDAZO[1,2-A]PYRIDIN-3-YL)-N-(PYRIDIN-3-YL) PYRIMIDIN-2- AMINE FOR TREATING PROLIFERATIVE DISEASES AND CONDITIONS” (AUCENTRA THERAPEUTICS PTY LTD, priority 2019, published 2024).
# Assays:
# [1] = molecular target: CDK6/CyclinD3 (Homo sapiens, UniProt Q00534); assay: ADP Glo kinase assay, CDK6/CyclinD3; type: biochemical; details: for Ki: Km ATP, read-out: Enzymatic inhibition, Ki, CDK6 D3; for remaining activity at 1 µM: compound at 1 μM, read-out: Residual enzymatic activity (%) at 1 μM, CDK6 D3
# CDK6/CyclinD3, sequence (Q00534 whole entry, species assumed): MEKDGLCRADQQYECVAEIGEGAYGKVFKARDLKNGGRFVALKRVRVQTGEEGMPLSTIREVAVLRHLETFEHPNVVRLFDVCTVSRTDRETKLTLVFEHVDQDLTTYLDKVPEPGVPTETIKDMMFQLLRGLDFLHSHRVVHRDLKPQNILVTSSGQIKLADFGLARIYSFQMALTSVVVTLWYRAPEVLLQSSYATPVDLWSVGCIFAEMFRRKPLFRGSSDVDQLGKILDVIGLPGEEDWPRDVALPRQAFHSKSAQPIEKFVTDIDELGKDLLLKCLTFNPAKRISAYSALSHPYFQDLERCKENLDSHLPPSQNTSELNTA
# CDK6/CyclinD3, sequence (P30281 whole entry partner, species assumed): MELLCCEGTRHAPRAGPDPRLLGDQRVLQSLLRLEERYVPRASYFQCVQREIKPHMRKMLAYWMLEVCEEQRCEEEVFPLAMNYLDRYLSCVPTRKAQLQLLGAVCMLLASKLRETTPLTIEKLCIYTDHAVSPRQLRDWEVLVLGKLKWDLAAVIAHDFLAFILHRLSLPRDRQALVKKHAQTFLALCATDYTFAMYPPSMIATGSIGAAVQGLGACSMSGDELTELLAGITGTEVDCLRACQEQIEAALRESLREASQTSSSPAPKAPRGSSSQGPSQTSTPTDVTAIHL
# Procedure, shortened: (§1)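 10-pt 1:3 dilution series, 10-0.0005 μM, 0.5% DMSO; RT reaction, optimised time; stopped with ADP Glo reagent.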
# [2] = molecular target: CDK9/CyclinT1 (Homo sapiens, UniProt P50750); assay: ADP Glo kinase assay, CDK9/CyclinT1; type: biochemical; details: for Ki: CDK9/CyclinT1, Km ATP, read-out: Enzymatic inhibition, Ki, CDK9 T1
# CDK9/CyclinT1, sequence (P50750 whole entry, species assumed): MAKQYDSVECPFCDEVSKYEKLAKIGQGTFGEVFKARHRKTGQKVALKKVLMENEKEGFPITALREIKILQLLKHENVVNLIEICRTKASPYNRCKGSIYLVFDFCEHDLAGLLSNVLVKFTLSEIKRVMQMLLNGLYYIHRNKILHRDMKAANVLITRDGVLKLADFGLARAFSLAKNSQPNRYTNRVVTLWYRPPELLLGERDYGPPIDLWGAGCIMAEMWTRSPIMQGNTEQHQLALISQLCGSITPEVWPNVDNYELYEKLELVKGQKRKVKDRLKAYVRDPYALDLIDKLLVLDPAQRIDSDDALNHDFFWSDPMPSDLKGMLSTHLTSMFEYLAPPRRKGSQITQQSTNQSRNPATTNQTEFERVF
# CDK9/CyclinT1, sequence (O60563 whole entry partner, species assumed): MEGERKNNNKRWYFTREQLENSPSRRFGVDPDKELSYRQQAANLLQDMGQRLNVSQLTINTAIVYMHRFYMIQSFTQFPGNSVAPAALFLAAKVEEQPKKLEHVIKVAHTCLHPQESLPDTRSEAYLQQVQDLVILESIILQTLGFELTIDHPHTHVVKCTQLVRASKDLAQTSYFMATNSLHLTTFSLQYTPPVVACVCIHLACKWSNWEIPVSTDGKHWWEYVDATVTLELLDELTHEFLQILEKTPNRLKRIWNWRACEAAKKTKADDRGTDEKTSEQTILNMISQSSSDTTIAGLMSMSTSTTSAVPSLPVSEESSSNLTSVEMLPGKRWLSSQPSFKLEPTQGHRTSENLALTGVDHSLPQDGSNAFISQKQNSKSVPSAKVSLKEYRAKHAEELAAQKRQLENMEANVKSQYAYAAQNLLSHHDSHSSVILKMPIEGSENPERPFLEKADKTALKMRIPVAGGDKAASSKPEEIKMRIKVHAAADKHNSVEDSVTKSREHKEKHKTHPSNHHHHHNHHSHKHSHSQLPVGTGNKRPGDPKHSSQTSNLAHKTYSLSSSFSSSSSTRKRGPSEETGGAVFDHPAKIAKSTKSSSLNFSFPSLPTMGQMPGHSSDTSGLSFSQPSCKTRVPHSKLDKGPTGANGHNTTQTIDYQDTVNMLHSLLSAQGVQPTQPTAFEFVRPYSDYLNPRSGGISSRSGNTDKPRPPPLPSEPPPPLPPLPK
# Procedure, shortened: as §1
# [3] = molecular target: CDK7/CyclinH/Mat1 (Homo sapiens, UniProt P50613); assay: ADP Glo kinase assay, CDK7/CyclinH/Mat1; type: biochemical; details: for Ki: Km ATP, read-out: Enzymatic inhibition, Ki, CDK7 H; for remaining activity at 1 µM: compound at 1 μM, read-out: Residual enzymatic activity (%) at 1 μM, CDK7 H
# CDK7/CyclinH/Mat1, sequence (P50613 whole entry, species assumed): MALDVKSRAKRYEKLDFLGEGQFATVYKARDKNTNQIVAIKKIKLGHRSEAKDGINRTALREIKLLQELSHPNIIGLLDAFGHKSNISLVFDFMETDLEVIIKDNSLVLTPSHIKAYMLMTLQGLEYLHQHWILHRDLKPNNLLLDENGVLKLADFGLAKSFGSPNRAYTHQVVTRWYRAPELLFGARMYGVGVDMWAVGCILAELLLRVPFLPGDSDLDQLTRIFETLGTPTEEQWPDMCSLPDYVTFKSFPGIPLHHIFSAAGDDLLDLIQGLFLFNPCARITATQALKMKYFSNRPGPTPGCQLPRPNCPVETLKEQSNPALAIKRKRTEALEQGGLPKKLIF
# CDK7/CyclinH/Mat1, sequence (P51946 whole entry partner, species assumed): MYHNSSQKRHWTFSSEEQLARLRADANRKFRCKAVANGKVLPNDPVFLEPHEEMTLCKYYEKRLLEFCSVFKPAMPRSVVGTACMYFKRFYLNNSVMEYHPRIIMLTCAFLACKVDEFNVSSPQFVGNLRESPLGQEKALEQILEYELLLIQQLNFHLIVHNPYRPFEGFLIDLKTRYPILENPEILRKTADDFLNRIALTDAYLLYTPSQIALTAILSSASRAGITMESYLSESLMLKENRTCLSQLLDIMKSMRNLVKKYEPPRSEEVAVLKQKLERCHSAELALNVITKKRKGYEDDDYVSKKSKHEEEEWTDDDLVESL
# CDK7/CyclinH/Mat1, sequence (P51948 whole entry partner, species assumed): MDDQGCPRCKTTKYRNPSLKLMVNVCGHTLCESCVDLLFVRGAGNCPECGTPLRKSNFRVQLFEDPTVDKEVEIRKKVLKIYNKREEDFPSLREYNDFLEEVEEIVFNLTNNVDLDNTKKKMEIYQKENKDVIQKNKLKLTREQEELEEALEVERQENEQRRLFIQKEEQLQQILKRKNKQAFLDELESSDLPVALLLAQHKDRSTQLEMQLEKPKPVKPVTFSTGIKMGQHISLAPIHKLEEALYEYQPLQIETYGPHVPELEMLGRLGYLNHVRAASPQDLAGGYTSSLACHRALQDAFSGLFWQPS
# Procedure, shortened: as §1
# [4] = molecular target: CDK4/CyclinD1 (Homo sapiens, UniProt P11802); assay: ADP Glo kinase assay, CDK4/CyclinD1; type: biochemical; details: for Ki: Km ATP, read-out: Enzymatic inhibition, Ki, CDK4 D1; for remaining activity at 1 µM: compound at 1 μM, read-out: Residual enzymatic activity (%) at 1 μM, CDK4 D1
# CDK4/CyclinD1, sequence (P11802 whole entry, species assumed): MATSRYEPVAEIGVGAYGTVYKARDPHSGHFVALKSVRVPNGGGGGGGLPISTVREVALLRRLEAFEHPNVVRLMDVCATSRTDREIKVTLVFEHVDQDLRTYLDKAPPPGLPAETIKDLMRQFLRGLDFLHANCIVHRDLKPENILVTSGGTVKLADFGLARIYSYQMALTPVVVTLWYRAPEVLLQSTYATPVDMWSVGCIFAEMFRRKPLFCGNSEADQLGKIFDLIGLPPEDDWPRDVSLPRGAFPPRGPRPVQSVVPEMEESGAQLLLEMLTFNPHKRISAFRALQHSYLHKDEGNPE
# CDK4/CyclinD1, sequence (P24385 whole entry partner, species assumed): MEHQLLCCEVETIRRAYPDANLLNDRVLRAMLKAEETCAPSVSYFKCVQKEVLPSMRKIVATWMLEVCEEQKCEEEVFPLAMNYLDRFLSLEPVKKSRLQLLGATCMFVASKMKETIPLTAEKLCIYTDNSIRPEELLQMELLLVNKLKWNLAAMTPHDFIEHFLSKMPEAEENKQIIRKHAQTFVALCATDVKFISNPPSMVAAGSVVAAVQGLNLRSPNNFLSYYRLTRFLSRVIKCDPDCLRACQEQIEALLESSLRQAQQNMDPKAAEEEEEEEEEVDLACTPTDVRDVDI
# Procedure, shortened: as §1
# [5] = molecular target: CDK1/CyclinB (Homo sapiens, UniProt P06493); assay: ADP Glo kinase assay, CDK1/CyclinB; type: biochemical; details: for Ki: Km ATP, read-out: Enzymatic inhibition, Ki, CDK1 B; for remaining activity at 1 µM: compound at 1 μM, read-out: Residual enzymatic activity (%) at 1 μM, CDK1 B
# CDK1/CyclinB, sequence (P06493 whole entry, species assumed): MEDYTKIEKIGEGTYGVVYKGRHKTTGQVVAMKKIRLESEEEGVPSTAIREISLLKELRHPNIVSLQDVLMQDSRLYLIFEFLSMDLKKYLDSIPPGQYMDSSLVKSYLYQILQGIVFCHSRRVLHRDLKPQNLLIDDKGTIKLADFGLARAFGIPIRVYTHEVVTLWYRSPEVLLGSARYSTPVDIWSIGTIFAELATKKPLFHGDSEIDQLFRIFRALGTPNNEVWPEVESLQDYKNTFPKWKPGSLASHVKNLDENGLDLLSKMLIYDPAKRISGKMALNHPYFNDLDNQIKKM
# CDK1/CyclinB, sequence (P14635 whole entry partner, species assumed): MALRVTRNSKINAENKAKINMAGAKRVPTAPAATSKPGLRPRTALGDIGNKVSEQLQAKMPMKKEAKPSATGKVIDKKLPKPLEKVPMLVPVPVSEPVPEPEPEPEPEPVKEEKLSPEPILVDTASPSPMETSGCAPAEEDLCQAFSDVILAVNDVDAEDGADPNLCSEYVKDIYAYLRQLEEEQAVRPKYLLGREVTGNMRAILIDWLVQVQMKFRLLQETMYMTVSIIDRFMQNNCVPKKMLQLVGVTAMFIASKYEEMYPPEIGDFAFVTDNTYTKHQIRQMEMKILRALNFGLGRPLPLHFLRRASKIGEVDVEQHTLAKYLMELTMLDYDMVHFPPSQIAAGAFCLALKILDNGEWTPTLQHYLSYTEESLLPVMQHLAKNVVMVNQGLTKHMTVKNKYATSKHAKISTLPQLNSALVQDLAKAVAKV
# Procedure, shortened: as §1
# [6] = molecular target: CDK2/CyclinA2 (Homo sapiens, UniProt P24941); assay: ADP Glo kinase assay, CDK2/CyclinA2; type: biochemical; details: for Ki: Km ATP, read-out: Enzymatic inhibition, Ki, CDK2 A; for remaining activity at 1 µM: compound at 1 μM, read-out: Residual enzymatic activity (%) at 1 μM, CDK2 A
# Procedure, shortened: as §1
# [7] = tested on: MV-4-11; assay: Proliferation assay (resazurin, leukemia cell lines), MV-4-11; type: cell-based; details: Homo sapiens, MV4-11, read-out: 72 h Growth inhibition GI50, MV-4-11 cells
# From the text: The following compounds were used as comparators.
# [8] = molecular target: T1, FLT3-ITD (Homo sapiens, UniProt P36888); assay: ADP Glo kinase assay, FLT3-ITD; type: biochemical; details: Km ATP 100 μM, read-out: Enzymatic inhibition, Ki, FLT3-ITD
# T1 sequence (P36888 1-993): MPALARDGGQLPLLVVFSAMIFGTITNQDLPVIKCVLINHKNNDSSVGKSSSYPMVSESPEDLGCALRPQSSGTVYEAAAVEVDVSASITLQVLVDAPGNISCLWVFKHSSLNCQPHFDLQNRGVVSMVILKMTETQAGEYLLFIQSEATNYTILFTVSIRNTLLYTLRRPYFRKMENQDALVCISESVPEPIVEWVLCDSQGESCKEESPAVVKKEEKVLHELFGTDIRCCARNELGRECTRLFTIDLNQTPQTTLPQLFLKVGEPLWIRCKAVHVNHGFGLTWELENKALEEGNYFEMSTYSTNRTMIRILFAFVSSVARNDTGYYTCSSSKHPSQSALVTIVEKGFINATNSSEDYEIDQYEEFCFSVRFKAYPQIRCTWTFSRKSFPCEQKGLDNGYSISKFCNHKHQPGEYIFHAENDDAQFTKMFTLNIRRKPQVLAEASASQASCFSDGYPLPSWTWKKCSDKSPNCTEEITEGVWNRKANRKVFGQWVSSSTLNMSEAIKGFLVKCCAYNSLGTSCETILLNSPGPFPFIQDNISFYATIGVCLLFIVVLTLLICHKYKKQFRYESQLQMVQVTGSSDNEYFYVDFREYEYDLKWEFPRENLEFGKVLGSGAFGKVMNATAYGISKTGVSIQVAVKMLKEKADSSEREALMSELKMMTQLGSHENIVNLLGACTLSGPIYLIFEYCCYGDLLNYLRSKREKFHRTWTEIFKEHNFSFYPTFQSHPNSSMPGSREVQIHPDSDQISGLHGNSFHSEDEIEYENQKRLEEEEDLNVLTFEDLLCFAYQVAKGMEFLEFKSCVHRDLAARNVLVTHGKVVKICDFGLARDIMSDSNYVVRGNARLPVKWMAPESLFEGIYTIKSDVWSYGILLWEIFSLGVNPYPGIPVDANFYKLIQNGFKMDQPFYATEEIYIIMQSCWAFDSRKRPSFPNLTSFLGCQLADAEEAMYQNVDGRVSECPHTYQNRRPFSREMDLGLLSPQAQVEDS
# Procedure, shortened: as §1
SMILES,Ki [1] [µM],Ki [2] [µM],Ki [3] [µM],Ki [4] [µM],Ki [5] [µM],Ki [6] [µM],GI50 [7] [µM],Ki [8] [µM],remaining activity at 1 µM [3] [%],remaining activity at 1 µM [4] [%],remaining activity at 1 µM [5] [%],remaining activity at 1 µM [6] [%],remaining activity at 1 µM [1] [%],"inhibition of CDK9 (in words) ([2]; compared with comparator compounds A, B and C (N-(pyridin-2-yl)pyrimidin-2-amine moiety))"
"Cc1cnc(Nc2ccc(N3CCNCC3)nc2)nc1-c1cnc2ccccn12 [Compound 13, 4-(Imidazo[1,2-a]pyridin-3-yl)-5-methyl-N-(6-(piperazin-1-yl)pyridin-3-yl)pyrimidin-2-amine]",0.299,0.494,0.41,0.408,0.5,0.17,0.007,0.006,–,–,–,–,–,–
"O=C(NC1CC1)c1ccc(Nc2ncc(F)c(-c3cnc4ccc(-c5ccccc5)cn34)n2)cn1 [Compound 33, N-Cyclopropyl-5-((5-fluoro-4-(6-phenylimidazo[1,2-a]pyridin-3-yl)pyrimidin-2-yl)amino) picolinamide]",–,> 0.5,–,–,–,–,0.296,> 1,100,96,59,83,46,–
"Cc1cnc(Nc2ccc(N3CCN(C)CC3)nc2)nc1-c1cnc2ccc(-c3ccccc3)cn12 [Compound 50, 5-Methyl-N-(6-(4-methylpiperazin-1-yl)pyridin-3-yl)-4-(6-phenylimidazo[1,2-a]pyridin-3-yl)pyrimidin-2-amine]",–,0.41,–,–,–,–,0.813,0.21,51,94,91,90,79,–
"Cc1cnc(Nc2ccc(N3CCOCC3)nc2)nc1-c1cnc2ccccn12 [Compound 14, 4-(Imidazo[1,2-a]pyridin-3-yl)-5-methyl-N-(6-morpholinopyridin-3-yl)pyrimidin-2-amine]",1.6,> 5,1.73,–,0.15,0.064,0.049,0.009,–,50,–,–,–,–
"CC(=O)N1CCN(c2ccc(Nc3ncc(C)c(-c4cnc5ccccn45)n3)cn2)CC1 [Compound 11, 1-(4-(5-((4-(Imidazo[1,2-a]pyridin-3-yl)-5-methylpyrimidin-2-yl)amino)pyridin-2-yl)piperazin-1-yl)ethan-1-one]",1.01,1.34,–,–,–,0.101,0.088,0.02,20,21,54,–,–,–
"c1ccc(-c2ccc3ncc(-c4ccnc(Nc5ccc(NC6CCOCC6)nc5)n4)n3c2)cc1 [Compound 58, N^5-(4-(6-Phenylimidazo[1,2-a]pyridin-3-yl)pyrimidin-2-yl)-N^2-(tetrahydro-2H-pyran-4-yl)pyridine-2,5-diamine]",–,0.401,–,–,–,–,0.028,0.14,73,33,77,73,45,–

# Molecules with a lower Ki [2], results first:
Ki [1] [µM],Ki [2] [µM],Ki [3] [µM],Ki [4] [µM],Ki [5] [µM],Ki [6] [µM],GI50 [7] [µM],Ki [8] [µM],remaining activity at 1 µM [3] [%],remaining activity at 1 µM [4] [%],remaining activity at 1 µM [5] [%],remaining activity at 1 µM [6] [%],remaining activity at 1 µM [1] [%],SMILES,"inhibition of CDK9 (in words) ([2]; compared with comparator compounds A, B and C (N-(pyridin-2-yl)pyrimidin-2-amine moiety))"
> 5,0.028,> 1,> 0.5,> 5,> 1,0.006,0.016,–,–,–,–,–,"CS(=O)(=O)N1CCN(c2ccc(Nc3nccc(-c4cnc5ccc(-c6ccccc6)cn45)n3)cn2)CC1 [Compound 17, N-(6-(4-(Methylsulfonyl)piperazin-1-yl)pyridin-3-yl)-4-(6-phenylimidazo[1,2-a]pyridin-3-yl)pyrimidin-2-amine]",–
0.159,0.142,–,–,–,–,0.041,0.024,71,86,56,39,–,"CN(C)c1ccc(Nc2nccc(-c3cnc4ccc(Br)cn34)n2)cn1 [Compound 65, N^5-(4-(6-Bromoimidazo[1,2-a]pyridin-3-yl)pyrimidin-2-yl)-N^2,N^2-dimethylpyridine-2,5-diamine]",–
–,0.014,–,–,–,0.376,0.05,0.011,29,48,32,–,24,"CC(C)N1CCN(c2ccc(Nc3nccc(-c4cnc5ccc(-c6ccsc6)cn45)n3)cn2)CC1 [Compound 54, N-(6-(4-Isopropylpiperazin-1-yl)pyridin-3-yl)-4-(6-(thiophen-3-yl)imidazo[1,2-a]pyridin-3-yl)pyrimidin-2-amine]",–
–,0.274,–,–,–,–,0.018,0.086,75,86,58,34,30,"COc1ccc(-c2ccc3ncc(-c4ccnc(Nc5ccc(N6CCN(C(C)=O)CC6)nc5)n4)n3c2)cn1 [Compound 48, 1-(4-(5-((4-(6-(6-Methoxypyridin-3-yl)imidazo[1,2-a]pyridin-3-yl)pyrimidin-2-yl)amino)pyridin-2-yl)piperazin-1-yl)ethan-1-one]",–
–,0.009,0.149,–,–,0.563,0.088,0.012,–,55,46,–,41,"CC(C)N1CCN(c2ccc(Nc3nccc(-c4cnc5ccc(-c6ccccc6)cn45)n3)cn2)CC1 [Compound 39, N-(6-(4-Isopropylpiperazin-1-yl)pyridin-3-yl)-4-(6-phenylimidazo[1,2-a]pyridin-3-yl)pyrimidin-2-amine]",–
2.16,0.0004,2.73,> 0.5,1.1,0.825,0.029,0.004,–,–,–,–,–,"CN1CCN(c2ccc(Nc3nccc(-c4cnc5ccc(-c6cccnc6)cn45)n3)cn2)CC1 [Compound 7, N-(6-(4-Methylpiperazin-1-yl)pyridin-3-yl)-4-(6-(pyridin-3-yl)imidazo[1,2-a]pyridin-3-yl)pyrimidin-2-amine]",dramatically and surprisingly increased the potency of inhibition of CDK9
> 5,0.008,3.97,–,0.635,–,0.011,0.006,–,33,–,28,–,"CS(=O)(=O)N1CCN(c2ccc(Nc3nccc(-c4cnc5ccc(-c6cccs6)cn45)n3)cn2)CC1 [Compound 21, N-(6-(4-(Methylsulfonyl)piperazin-1-yl)pyridin-3-yl)-4-(6-(thiophen-2-yl)imidazo[1,2-a]pyridin-3-yl)pyrimidin-2-amine]",–
